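Dose response: 5 concentrations. Exposure: 48 h. Format: 96-well plates. Endpoint: linear interpolation; highest concentration if not reached. The concentration for full growth arrest is given as TGI.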
Legend:
Assay in all cases: NCI anticancer screen, dose series, 48 h
[1] = system: NCI-H522 lung
[2] = system: SF-539 CNS
[3] = system: HOP-92 NSCLC
[4] = system: LOX IMVI melanoma
[5] = system: U251 CNS
[6] = system: K-562 leukemia
[7] = system: SF-295 CNS
[8] = system: SK-MEL-5 melanoma
[9] = system: HCT-116 colon
[10] = system: TK-10 renal
[11] = system: HL-60(TB) leukemia
[12] = system: MALME-3M melanoma
[13] = system: KM12 colon
[14] = system: M14 melanoma
[15] = system: NCI-H460 lung
[16] = system: OVCAR-5 ovarian
[17] = system: DMS 273 small cell lung
[18] = system: IGROV1 ovarian
[19] = system: UACC-257 melanoma
[20] = system: A549 NSCLC
[21] = system: HT29 colon
[22] = system: SNB-78 CNS
[23] = system: LXFL 529 NSCLC
[24] = system: RPMI-8226 leukemia
[25] = system: UACC-62 melanoma
[26] = system: OVCAR-3 ovarian
[27] = system: NCI-H23 lung
[28] = system: DMS 114 small cell lung
[29] = system: HOP-62 NSCLC
[30] = system: SN12C renal
[31] = system: M19-MEL melanoma
[32] = system: MOLT-4 leukemia
[33] = system: SNB-75 CNS
[34] = system: OVCAR-8 ovarian
[35] = system: HOP-18 NSCLC
[36] = system: COLO 205 colon
[37] = system: SR leukemia
[38] = system: A498 renal
[39] = system: XF 498 CNS
[40] = system: KM20L2 colon
[41] = system: SK-MEL-2 melanoma
[42] = system: OVCAR-4 ovarian
[43] = system: 786-0 renal
[44] = system: SK-OV-3 ovarian
[45] = system: DLD-1 colon
[46] = system: ACHN renal
[47] = system: SK-MEL-28 melanoma
[48] = system: EKVX NSCLC
[49] = system: HCC-2998 colon
[50] = system: HCT-15 colon
[51] = system: SNB-19 CNS
[52] = system: SF-268 CNS
[53] = system: NCI-H226 lung
[54] = system: CCRF-CEM leukemia
[55] = system: SW-620 colon
[56] = system: CAKI-1 renal

Cc1cc(O)c(C=O)c(C)c1CCC1(C)C=Cc2cc(O)ccc2O1 (stereo unspecified)
TGI [1]: 28.2 µM
TGI [2]: 38.9 µM
TGI [3]: 57.9 µM
TGI [4]: 40.3 µM
TGI [5]: 48.8 µM
TGI [6]: 67.9 µM
TGI [7]: 67.6 µM
TGI [8]: 71.2 µM
TGI [9]: 30.9 µM
TGI [10]: > 100 µM
TGI [11]: 60.3 µM
TGI [12]: 71.4 µM
TGI [13]: > 100 µM
TGI [14]: 35 µM
TGI [15]: 52.5 µM
TGI [16]: 79.1 µM
TGI [17]: 46.4 µM
TGI [18]: > 100 µM
TGI [19]: 53.7 µM
TGI [20]: > 100 µM
TGI [21]: 82.2 µM
TGI [22]: 86.4 µM
TGI [23]: 29.8 µM
TGI [24]: 56.1 µM
TGI [25]: 43 µM
TGI [26]: 56.3 µM
TGI [27]: 43.9 µM
TGI [28]: 44.7 µM
TGI [29]: 43.2 µM
TGI [30]: > 100 µM
TGI [31]: > 100 µM
TGI [32]: 50.5 µM
TGI [33]: 94.1 µM
TGI [34]: 31.4 µM
TGI [35]: 60.5 µM
TGI [36]: 30.4 µM
TGI [37]: > 100 µM
TGI [38]: > 100 µM
TGI [39]: 52.7 µM
TGI [40]: 57.4 µM
TGI [41]: 53.9 µM
TGI [42]: 67 µM
TGI [43]: > 100 µM
TGI [44]: 85.6 µM
TGI [45]: 38 µM
TGI [46]: 38.6 µM
TGI [47]: 54 µM
TGI [48]: 94.4 µM
TGI [49]: 79.2 µM
TGI [50]: 55.1 µM
TGI [51]: > 100 µM
TGI [52]: > 100 µM
TGI [53]: > 100 µM
TGI [54]: 48.8 µM
TGI [55]: 45 µM
TGI [56]: 37.1 µM
